Patent US20030045508A1, “(1r,cis)-4-(4-amino-7h-pyrrolo'2,3-i(d) pyrimidine-7-yl)-2-cyclopentene-1-methanol derivatives as antiviral” (priority 2002, published 2003)

Tests used:
[1] = Acid stability (acid-mediated hydrolytic decomposition, simulated stomach conditions); type: physicochemical; settings: 0.1 N hydrochloric acid at 25° C.
Description: The compound of Example 3 was tested for stability towards acid-mediated hydrolytic decomposition employing a test designed to simulate stomach conditions. The compound was incubated at an initial concentration of 0.27 mg/mL in dilute hydrochloric acid at pH 1 for 72 hours at 37° C. HPLC was run immediately for t=0 and at intervals up to approximately 72 hours.
In contrast, the phosphoramidate of 2′,3′-dideoxy-adenosine (Compound 1093, PCT/GB9600580) had entirely decomposed by t=13 hours and 2′,3′-didehydro-2′,3′-dideoxy-adenosine (Compound 1001, PCT/GB96/00580) had entirely decomposed at t=0 in 0.1 N hydrochloric acid at 25° C.

melting point [°C] | time t at which entirely decomposed [1] [h] | SMILES
165 to 168 |  | Nc1ncnc2c1ccn2[C@@H]1C=C[C@H](CO)C1 [Example 1, (+)-(1R, cis)-4-[4-Amino-7H-pyrrolo(2,3-d)pyrimidin-7-yl]-2-cyclopentene-1-methanol]
 | 0 | Nc1ncnc2c1ncn2[C@H]1C=C[C@@H](CO)O1 [Compound 1001, 2′,3′-didehydro-2′,3′-dideoxy-adenosine]
